# Measurements reported in patent publication US20090211893A1, “Photo-Activatable Amino Acids” (priority 2005, published 2009).
# Experiments:
# COS7 cells = test: Cell viability by trypan blue exclusion; assay type: cell-based, monkey; settings: LM-2 medium supplement; percent ± SD of viable cells (n = 6)
# Description: Unnatural amino acids frequently are toxic to cells. To find out if this is the case for photo-amino acids of the invention, we monitored in COS7 cells protein biosynthesis by incorporation of [^3H]Phe and viability by trypan blue exclusion of cells grown in the presence or absence of the photo-amino acids photo-Leu, photo-Met and photo-Ile. Due to the lack of two essential amino acids in the growth medium, protein biosynthesis is reduced to about 65% of that in a full growth medium. […] Although cells grew slightly slower than in full growth medium, viability (Table 2) and cell morphology (not shown) were unaffected.
# [1] = tested on: E. coli beta-galactosidase; test: Activity of beta-galactosidase expressed in cells grown with photo-amino acids; assay type: cell-based, monkey; settings: COS 7 cells, 20 h in LM-2 with photo-amino acid; percent ± SD (n = 6) of value in DMEM + FCS
# Description: We furthermore tested, whether proteins produced by cells grown with photo-amino acids are functional or not. For that, we transfected cells with GFP-fusion constructs of the small GTPase Rab5 and of mutated Rab5 that is constitutively activated (GFP-Rab5QL) or dominant negative (GFP-Rab5SN)^19 and monitored the GFP fluorescence by confocal microscopy. Four hours after transfection, when cells were switched to media containing photo-amino acids, no GFP signal was detectable (see FIG. 7). […] Both, staining intensity and localization were unaffected by the presence of either of the photo-amino acids. Taking into account a frequency of substitution of photo-Met for Met of 35% (see below) and the amounts of Met in Rab5 and GFP, more than 80% of the fusion protein will have photo-Met in both the Rab5- and the GFP-part of the fusion, more than 99% in at least one of the two parts. […] To corroborate this with a quantitative assay, we measured the activity of beta-galactosidase that was expressed in the absence or presence of photo-amino acids (see Table 4). Activity in LM-2 labeling medium was 79% of that in full DMEM. The addition of either of the three photo-amino acids or of a mixture of photo-Met and photo-Leu had no significant additional effect. E. coli beta-galactosidase contains 23 methionines of which on average 8 would be replaced by photo-Met; less than 0.01% of the protein are expected to have no substitution by photo-Met. We conclude that photo-amino acids are non-toxic to cultivated mammalian cells and can, at least partially, functionally replace branched chain amino acids and methionine.
# Insig-1 and PGRMC1 = test: Photo-crosslinking of Insig-1 and PGRMC1 with immunoprecipitation and western blotting; assay type: cell-based, human; settings: COS7 cells, UV-irradiated, IP anti-HA, blot anti-myc
# Description: Cells were UV-irradiated or not irradiated as indicted, lysed and subjected to immunoprecipitation (IP) with anti-HA or anti-myc antibodies as indicated. Immunoprecipitated proteins were separated by SDS-PAGE and probed (WB) for the presence of cross-links with anti-myc antibody or anti-HA antibody as indicated. The small difference in apparent molecular weight of the cross-link is due to different percentage of SDS-PAGE gels used. The presence of uncrosslinked Insig-1 in the left lanes indicates non-covalent co-immunoprecipitation. The strong band in lanes 3 and 4 (IgG-HC) is crossreacting IgG heavy chain.
# COS7 (monkey kidney) cells were grown in DMEM high glucose (Gibco no. 11995; with L-glutamine and Na-pyruvate)+10% FCS. […]
# The methods of the invention have been applied to the study of protein-protein interactions between membrane proteins. […] To detect the cross-linked proteins, detergent extracts were immunoprecipitated for PGRMC1 with anti-HA antibody and precipitates analyzed for Insig-1 by western blotting with anti-myc antibody. If cells were grown in the absence of photo-Met, only a small amount of co-immunoprecipitated Insig-1, but no cross-linked band was detected (FIG. 6a, lane 2). […] An identical band was detected using the inverted order of detection, i.e. immunoprecipitation with anti-myc followed by blotting with anti-HA antibody (FIG. 6a, lane 3). […]
smiles,measurement,setting,value
"CC1(CCC(N)C(=O)O)N=N1 [photo-Met, L-2-amino-5,5′-azi-hexanoic acid]",Cell viability,COS7 cells,99.8 ± 0.1%
same,beta-galactosidase activity,[1],73 ± 5%
same,Insig-1×PGRMC1 cross-linked band,Insig-1 and PGRMC1,a strong band appeared
